Measured values reported in patent US20060247320A1, “Compounds for inhibiting KSP kinesin activity” (priority 2005, published 2006).
Where two headings read alike, the source gives them in different places.

Biological target: T1, KSP motor domain (Homo sapiens, UniProt P52732)
T1 sequence (P52732 18-359 limits assumed): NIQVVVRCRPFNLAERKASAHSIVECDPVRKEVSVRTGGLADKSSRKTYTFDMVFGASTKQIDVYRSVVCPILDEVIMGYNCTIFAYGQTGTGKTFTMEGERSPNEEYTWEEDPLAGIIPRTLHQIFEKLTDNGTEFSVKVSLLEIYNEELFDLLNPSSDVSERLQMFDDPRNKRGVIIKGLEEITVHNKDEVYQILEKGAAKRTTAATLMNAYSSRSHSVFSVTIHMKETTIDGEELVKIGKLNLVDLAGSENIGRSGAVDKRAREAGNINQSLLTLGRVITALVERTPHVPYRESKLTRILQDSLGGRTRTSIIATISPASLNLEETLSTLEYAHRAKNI
Test: biochemical

[1] = KSP inhibitory activity, end-point assay, class symbols (Table 1), read-out: IC50
[2] = IC50 (nM), KSP inhibitory activity, end-point assay, class symbols (Table 1)
[3] = exact IC50 values, end-point assay (Table 2), read-out: IC50

Structure (SMILES)	IC50 [1] [nM]	also measured
CC(C)(C)C1CCc2nc3sc(C(N)=S)cc3cc2C1 (centres unmarked) [Example 70, 6-tert-butyl-5,6,7,8-tetrahydrothieno[2,3-b]quinoline-2-carbothioic acid amide]	100 to 1000	–
N#Cc1sc2nc3c(cc2c1N)CC(C12CC4CC(CC(C4)C1)C2)CC3 (centres unmarked) [Example 4]	> 10000	–
CC(C)(C)C1CCc2nc3sc(C(=O)Nc4cccnc4)cc3cc2C1 (centres unmarked) [Example 226B]	100 to 1000	–
CC(C)(C)[C@@H]1CCc2nc3sc(C(=O)N[C@H](CN)c4cccc(NC(=O)c5ccn(-c6ccccc6)n5)c4)cc3cc2C1 [Example 241]	< 100	–
C[Si](C)(C)C1CCc2nc3sc(C(=O)NCCN)cc3cc2C1 (centres unmarked) [Example 191, N-(2-Aminoethyl) 5,6,7,8-Tetrahydro-6-(Trimethylsilyl)thieno[2,3-b]quinoline-2-Carboxamide]	–	IC50 [2]: < 100 nM; IC50 (IC50 (nM), exact IC50 values, end-point assay (Table 2)): 10 nM
Cc1nnsc1C(=O)Nc1cccc([C@@H](CN)NC(=O)c2cc3cc4c(nc3s2)CC[C@@H](C(C)(C)C)C4)c1 [Example 258]	< 100	–
CC1Cc2nc3sc(C#N)cc3cc2CC1C(C)(C)C (centres unmarked) [Example 203, 6-tert-Butyl-7-methyl-5,6,7,8-tetrahydro-thieno[2,3,-b]quinoline-2-carbonitrile]	100 to 1000	–
CC(C)(C)C1CCc2nc3sc(C(=O)Nc4ccncc4N)cc3cc2C1 (centres unmarked) [Example 226E]	100 to 1000	–
Cn1cc(C(=O)Nc2cccc([C@@H](CN)NC(=O)c3cc4cc5c(nc4s3)CC[C@@H](C(C)(C)C)C5)c2)cn1 [Example 240]	< 100	–
CC(=O)Nc1cc2cc3c(nc2s1)CCC(C(C)(C)C)C3 (centres unmarked) [Example 124, N-(6-tert-Butyl-5,6,7,8-tetrahydrothieno[2,3-b]quinolin-2-yl)acetamide]	1000 to 10000	–
CC1Cc2nc3sc(C#N)c(N)c3cc2CC1C(C)(C)C (centres unmarked) [Example 202, 3-Amino-6-tert-butyl-7-methyl-5,6,7,8-tetrahydrothieno[2,3-b]quinoline-2-carbonitrile]	100 to 1000	–
CC(C)(C)[C@@H]1CCc2nc3sc(C(=O)N[C@H](CN)c4cccc(NC(=O)c5cc[nH]n5)c4)cc3cc2C1 [Example 236]	< 100	–
Cc1ccc([C@@H](CN)NC(=O)c2cc3cc4c(nc3s2)CCC(C(C)(C)C)C4)cc1 (some centres unmarked) [Example 221]	< 100	–
CC(C)(C)C1CCc2nc3sc(COC(N)=O)cc3cc2C1 (centres unmarked) [Example 147]	–	IC50 [2]: 1000 to 10000 nM
CCC(C)(C)C1CCc2nc3sc(-c4nn[nH]n4)cc3cc2C1 (centres unmarked) [Example 72]	1000 to 10000	–
N#Cc1sc2nc3c(cc2c1N)C/C(=C/C1CC1)CC3 [Example 37]	> 10000	–
CCC(C(C)C)C1CCc2nc3sc(C#N)c(N)c3cc2C1 (centres unmarked) [Example 28]	100 to 1000	–
CC(C)(C)C1CCc2nc3sc(C(=O)NCC#N)cc3cc2C1 (centres unmarked) [Example 167, 6-tert-Butyl-5,6,7,8-tetrahydrothieno[2,3-b]quinoline-2-carboxylic acid cyanomethyl-amide]	100 to 1000	–
CC(C)(C)C1CCc2nc3sc(C(=O)NCC4CCNCC4)cc3cc2C1 (centres unmarked) [Example 195, 6-(1,1-Dimethylethyl)-5,6,7,8-Tetrahydro-N-(4-Piperidinylmethyl)thieno[2,3-b]quinoline-2-Carboxamide]	1000 to 10000	–
C[C@H](NC(=O)c1cc2cc3c(nc2s1)CCC(C(C)(C)C)C3)C(=N)N (some centres unmarked) [Example 169]	< 100	–
CC(C)(C)[C@@H]1CCc2nc3sc(C(=O)N[C@H](CN)c4cccc(NC(=O)c5cnc6ccccc6n5)c4)cc3cc2C1 [Example 228]	< 100	–

Structure (SMILES)	IC50 [1] [nM]	also measured
CC(C)C1Cc2cc3cc(C(N)=O)sc3nc2CC1C (centres unmarked) [Example 209, 6-isopropyl-7-methyl-5,6,7,8-tetrahydro-thieno[2,3,-b]quinoline-2-carboxylic acid amide]	100 to 1000	–
CC(C)(C)[C@@H]1CCc2nc3sc(C(=O)N[C@H](CN)c4ccc(NC(=O)c5cscn5)cc4)cc3cc2C1 [Example 270]	< 100	–
CC(C)(C)C1CCc2nc3sc(C(=O)N[C@H](CN)c4cccc([N+](=O)[O-])c4)cc3cc2C1 (some centres unmarked) [Example 214]	< 100	–
CC1(C2CCc3nc4sc(C#N)c(N)c4cc3C2)CCCC1 (centres unmarked) [Example 6]	100 to 1000	–
CC(C)(C)C1CCc2nc3sc(C#N)c(Br)c3cc2C1 (centres unmarked) [Example 112, 6-tert-Butyl-3-bromo-5,6,7,8-tetrahydrothieno[2,3-b]quinoline-2-carbonitrile]	> 10000	–
CC(C)(C)OC(=O)N1CCc2nc3sc(C#N)c(N)c3cc2C1 [Example 42]	> 10000	–
CC(C)(C)[C@@H]1CCc2nc3sc(C(=O)N[C@H](CN)c4cccc(NC(=O)c5cnn[nH]5)c4)cc3cc2C1 [Example 253]	100 to 1000	–
CNc1nsnc1C(=O)Nc1cccc([C@@H](CN)NC(=O)c2cc3cc4c(nc3s2)CC[C@@H](C(C)(C)C)C4)c1 [Example 256]	< 100	–
CC(C)(C)[C@@H]1CCc2nc3sc(C(=O)N[C@H](CN)c4cccc(NC(=O)c5csnn5)c4)cc3cc2C1 [Example 257]	< 100	IC50 [3]: 23 nM
CC(C)(C)C1CCc2nc3sc(C(=O)NCCN4CCNCC4)cc3cc2C1 (centres unmarked) [Example 197, 6-(1,1-Dimethylethyl)-5,6,7,8-Tetrahydro-N-[2-(1-Piperazinyl)ethyl]thieno[2,3-b]quinoline-2-Carboxamide]	100 to 1000	–
CC(C)(C)C1CCc2nc3sc(S(C)(=O)=O)c(O)c3cc2C1 (centres unmarked) [Example 121, 6-tert-Butyl-2-methanesulfonyl-5,6,7,8-tetrahydrothieno[2,3-b]quinolin-3-ol]	> 10000	–
C[C@H]1CN(C(=O)Nc2cccc([C@@H](CN)NC(=O)c3cc4cc5c(nc4s3)CC[C@@H](C(C)(C)C)C5)c2)CCN1 [Example 280]	100 to 1000	–
CC(CO)NC(=O)c1cc2cc3c(nc2s1)CCC(C(C)(C)C)C3 (centres unmarked) [Example 76]	1000 to 10000	–
CC(C)(C)[C@@H]1CCc2nc3sc(C(=O)N[C@H](CN)c4cccc(NC(=O)c5ccns5)c4)cc3cc2C1 [Example 235]	< 100	IC50 [3]: 23 nM
CC(C)(C)C1CCc2nc3sc(C(=O)Nc4ccncc4)cc3cc2C1 (centres unmarked) [Example 226C]	100 to 1000	–
COc1ccc([C@@H](CN)NC(=O)c2cc3cc4c(nc3s2)CCC(C(C)(C)C)C4)cc1 (some centres unmarked) [Example 219]	< 100	–
CC(C)(C)C1CCc2nc3sc(C(=O)N[C@H](CN)c4ccc(C#N)cc4)cc3cc2C1 (some centres unmarked) [Example 216]	< 100	–
CC(C)C(C)(C)C1CCc2nc3sc(C#N)c(N)c3cc2C1 (centres unmarked) [Example 7]	> 10000	–
CC(C)(C)C1CCc2nc3sc(NC(N)=O)nc3cc2C1 (centres unmarked) [Example 132, (7-tert-Butyl-5,6,7,8-tetrahydrothiazolo[5,4-b]quinolin-2-yl)-urea]	1000 to 10000	–
Cc1ncnc(C)c1C(=O)Nc1ccc([C@@H](CN)NC(=O)c2cc3cc4c(nc3s2)CC[C@@H](C(C)(C)C)C4)cc1 [Example 272]	< 100	–
CC(C)(C)C1CCc2nc3sc(C(=O)Nc4cccc(N)c4)cc3cc2C1 (centres unmarked) [Example 226D]	100 to 1000	–

Structure (SMILES)	IC50 [1] [nM]	also measured
N#Cc1sc2nc3c(cc2c1N)CC(C1CCCC1)CC3 (centres unmarked) [Example 22]	> 10000	–
CC1(C2CCc3nc4sc(C#N)c(N)c4cc3C2)CC1 (centres unmarked) [Example 43]	100 to 1000	–
N#Cc1sc2nc3c(cc2c1N)CC1(CC3)OCCO1 [Example 44]	> 10000	–
CC(C)(C)[C@@H]1CCc2nc3sc(C(=O)N[C@H](CN)c4cccc(NC(=O)c5ccon5)c4)cc3cc2C1 [Example 232]	< 100	–
CC(C)(C)C1CCc2nc3sc(C(=O)N4C[C@H](O)C[C@@H]4C(=O)O)cc3cc2C1 (some centres unmarked) [Example 93]	> 10000	–
CC(C)(C)C1CCc2nc3sc(C(=O)N4CCNCC4)cc3cc2C1 (centres unmarked) [Example 95]	> 10000	–
CCC(CN)NC(=O)c1cc2cc3c(nc2s1)CCC(C(C)(C)C)C3 (centres unmarked) [Example 177]	< 100	IC50 [3]: 65 nM
CCC(C)C1CCc2nc3sc(C#N)c(N)c3cc2C1 (centres unmarked) [Example 21]	1000 to 10000	–
CC(=O)NCc1cc2cc3c(nc2s1)CCC(C(C)(C)C)C3 (centres unmarked) [Example 154]	1000 to 10000	–
CC(C)(C)C1CCc2nc3sc(C(=O)NCCCN4CCCC4=O)cc3cc2C1 (centres unmarked) [Example 196, 6-(1,1-Dimethylethyl)-5,6,7,8-Tetrahydro-N-[3-(2-oxo-1-Pyrrolidinyl)propyl]thieno[2,3-b]quinoline-2-Carboxamide]	1000 to 10000	–
CN(C)Cc1cc2cc3c(nc2s1)CCC(C(C)(C)C)C3 (centres unmarked) [Example 152]	1000 to 10000	–
CC(C)(C)C1CCc2nc3sc(C(=O)N[C@H](CN)Cc4ccc(O)cc4)cc3cc2C1 (some centres unmarked) [Example 180]	100 to 1000	–
CC(C)[C@@H](CO)NC(=O)c1cc2cc3c(nc2s1)CCC(C(C)(C)C)C3 (stereo partly drawn) [Example 157, 6-tert-Butyl-5,6,7,8-tetrahydrothieno[2,3-b]quinoline-2-carboxylic acid [(1S)-1-hydroxymethyl-2-methyl-propyl]amide]	> 10000	–
CNCc1cc2cc3c(nc2s1)CCC(C(C)(C)C)C3 (centres unmarked) [Example 151]	1000 to 10000	–
CC(C)(C)C1CCc2nc3sc(CCl)cc3cc2C1 (centres unmarked) [Example 145]	100 to 1000	–
CC(C)(C)C1CCc2nc3c(cc2C1)c(N)c(C#N)[s+]3[O-] (centres unmarked) [Example 126, 3-Amino-6-tert-butyl-1-oxo-5,6,7,8-tetrahydro-1H-1λ^4-thieno[2,3-b]quinoline-2-carbonitrile]	1000 to 10000	–
CC(C)(C)C1CCc2nc3sc(C(=O)NCCCN)cc3cc2C1 (centres unmarked) [Example 101]	100 to 1000	–
CC(C)C1CCc2nc3sc(C#N)c(N)c3cc2C1 (centres unmarked) [Example 1, 3-amino-6-isopropyl-5,6,7,8-tetrahydrothieno[2,3-b]quinoline-2-carbonitrile]	1000 to 10000	–
CC(C)(C)C1CCc2nc3sc(C(=O)N4CCCC[C@@H]4C(=O)O)cc3cc2C1 (some centres unmarked) [Example 91]	> 10000	–
